Measured values taken from PubChem BioAssay (NCI).
Where “and” joins values, the source holds several entries; their conditions need not be identical. Equal values may be shown once.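 Briefly, cells in 96-well plates were exposed to five compound concentrations for 48 h, and endpoints were estimated by linear interpolation. GI50 marks 50% less growth. Definition used: TGI = concentration required for complete inhibition of growth.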

Key:
Assay in all cases: NCI anticancer screen, dose series, 48 h
A549 NSCLC = tested on: A549 NSCLC
CAKI-1 renal = tested on: CAKI-1 renal
DU-145 prostate = tested on: DU-145 prostate
HOP-92 NSCLC = tested on: HOP-92 NSCLC
M14 melanoma = tested on: M14 melanoma
MOLT-4 leukemia = tested on: MOLT-4 leukemia
OVCAR-5 ovarian = tested on: OVCAR-5 ovarian
OVCAR-8 ovarian = tested on: OVCAR-8 ovarian
SNB-75 CNS = tested on: SNB-75 CNS
UACC-62 melanoma = tested on: UACC-62 melanoma

| SMILES | GI50 (A549 NSCLC) | TGI (A549 NSCLC) | GI50 (CAKI-1 renal) | TGI (CAKI-1 renal) | GI50 (DU-145 prostate) | TGI (DU-145 prostate) | GI50 (HOP-92 NSCLC) | TGI (HOP-92 NSCLC) | GI50 (M14 melanoma) | TGI (M14 melanoma) | GI50 (MOLT-4 leukemia) | TGI (MOLT-4 leukemia) | GI50 (OVCAR-5 ovarian) | TGI (OVCAR-5 ovarian) | GI50 (OVCAR-8 ovarian) | TGI (OVCAR-8 ovarian) | GI50 (SNB-75 CNS) | TGI (SNB-75 CNS) | GI50 (UACC-62 melanoma) | TGI (UACC-62 melanoma) |
| --- | --- | --- | --- | --- | --- | --- | --- | --- | --- | --- | --- | --- | --- | --- | --- | --- | --- | --- | --- | --- |
| CC(C)n1cc(-c2ccc3c(c2)N(C)CC3)c2c(NS(=O)(=O)c3ccn(C)n3)ccnc21 | 44 µM | > 100 µM | 44.3 µM | > 100 µM | > 100 µM | > 100 µM | 24.6 µM | > 100 µM | 44.5 µM | > 100 µM | 65.7 µM | > 100 µM | > 100 µM | > 100 µM | 72.7 µM | > 100 µM | 39.9 µM | > 100 µM | 36.7 µM | > 100 µM |
| CC(=O)OC1C(O)C(C)OC(OC2C(OC(=O)C3CCC4C(C3)OC3(CC(OC(=O)/C=C/c5ccccc5)C(C)CO3)C43CO3)OC(C)C(O)C2OC(C)=O)C1O (stereo not given) |  | 0.333 µM |  | 1.21 µM |  | 0.0714 µM |  | 0.0344 µM |  | 0.0293 µM |  | 0.032 µM |  | 0.144 µM |  | 0.198 µM |  | 0.0317 µM |  | 0.0382 µM |
| CCCCCc1cc(/C=C2/N=C(c3ccc[nH]3)C=C2OC)[nH]c1C |  | 1.19 µM |  | 0.0168 µM |  | 1.48 µM |  | 0.0213 µM |  | < 0.034 µM |  | 0.134 µM |  | 1.26 µM |  | 1.25 µM |  | < 0.0124 µM |  | 0.03 µM |
| COc1ccc2[nH]c(C(=O)OCc3ccc4c(Br)cc(Br)c(O)c4n3)cc2c1 | 1.63 µM | 3.54 µM | 0.482 µM | 1.83 µM | 1.12 µM | 2.33 µM | 0.352 µM | 1.75 µM | 0.83 µM | 2.29 µM | 0.452 µM | 2.17 µM | 1.21 µM | 2.66 µM | 0.907 µM | 2.64 µM | 0.307 µM | 1.73 µM | 1.06 µM | 2.29 µM |
| CCOc1cc(Cl)c(C(C)NC(=O)c2cccc(OC)c2)cc1OCC (stereo not given) | 8.59 µM | > 100 µM | 11.1 µM | > 100 µM | 24.8 µM | > 100 µM | 12.1 µM | > 85.6 µM | 5.39 µM | > 100 µM | 5.91 µM | > 100 µM | > 52.7 µM | > 100 µM | 25.7 µM | > 100 µM | 4.79 µM | 49.9 µM | 8.81 µM | > 100 µM |
| CO/N=C(/C)COc1ccc2c(c1)oc(=O)c1cc(OC)ccc12 | > 100 µM | > 100 µM | 97.6 µM | > 100 µM | > 100 µM | > 100 µM | > 100 µM | > 100 µM | > 100 µM | > 100 µM | > 100 µM | > 100 µM | > 100 µM | > 100 µM | > 100 µM | > 100 µM | 57.4 µM | > 100 µM | > 100 µM | > 100 µM |
| CN1C(=O)C(N=Nc2ccc([N+](=O)[O-])cc2)SC1=S (stereo not given) | 5.78 µM and 14.1 µM | > 100 µM | 1.18 µM and 3.88 µM | 7.8 µM and 50 µM | 7.11 µM and 22.1 µM | 41.6 µM and > 100 µM | 1.71 µM | 12.3 µM | 7.61 µM and 19.2 µM | > 100 µM | 5.82 µM and 5.81 µM | > 100 µM | 10.6 µM and 15.4 µM | > 100 µM and 99.6 µM | 4.38 µM and 11 µM | > 100 µM | 3.23 µM and 16.1 µM | 67.2 µM and 89.1 µM | 3.29 µM and 2.85 µM | > 100 µM |
